Legend:
Assay in all cases: relative viability (nuclei count vs DMSO), 5 days (fraction); higher = more cells survive
Erlotinib + Foretinib = compound: C#Cc1cccc(Nc2ncnc3cc(OCCOC)c(OCCOC)cc23)c1 [Erlotinib] + COc1cc2c(Oc3ccc(NC(=O)C4(C(=O)Nc5ccc(F)cc5)CC4)cc3F)ccnc2cc1OCCCN1CCOCC1 [Foretinib] (partner 0.25 µM)
In short: (§1)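 A single step with final 0.05% Triton X-100, 1% formaldehyde and 1 ug/ml Hoechst fixed the cells and stained nuclei 5 days after treatment. Lung cancer cell lines in 1536-well plates had been treated by pin tool the day after seeding with one drug alone or a fixed anchor-drug dose plus five library-drug doses (not always all listed) in √10 steps, and nuclei were counted on 4× images. Relative viability is the ratio of nuclei in treated wells to nuclei in vehicle wells, taken as the median of duplicate plates.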

Erlotinib + AZD7762 = compound: C#Cc1cccc(Nc2ncnc3cc(OCCOC)c(OCCOC)cc23)c1 [Erlotinib] + NC(=O)Nc1cc(-c2cccc(F)c2)sc1C(=O)N[C@H]1CCCNC1 [AZD7762] (partner 0.2 µM)
In short: as §1

AT9283 + Palbociclib = compound: O=C(Nc1c[nH]nc1-c1nc2ccc(CN3CCOCC3)cc2[nH]1)NC1CC1 [AT9283] + CC(=O)c1c(C)c2cnc(Nc3ccc(N4CCNCC4)cn3)nc2n(C2CCCC2)c1=O [Palbociclib] (partner 0.5 µM)
In short: as §1

AT9283 + AZD7762 = compound: O=C(Nc1c[nH]nc1-c1nc2ccc(CN3CCOCC3)cc2[nH]1)NC1CC1 [AT9283] + NC(=O)Nc1cc(-c2cccc(F)c2)sc1C(=O)N[C@H]1CCCNC1 [AZD7762] (partner 0.2 µM)
In short: as §1

AT9283 + Lapatinib = compound: O=C(Nc1c[nH]nc1-c1nc2ccc(CN3CCOCC3)cc2[nH]1)NC1CC1 [AT9283] + CS(=O)(=O)CCNCc1ccc(-c2ccc3ncnc(Nc4ccc(OCc5cccc(F)c5)c(Cl)c4)c3c2)o1 [Lapatinib] (partner 2 µM)
In short: as §1

| Cell Line | relative viability (Erlotinib + Foretinib; first compound 0.02 µM) | relative viability (Erlotinib + Foretinib; first compound 0.2 µM) | relative viability (Erlotinib + Foretinib; first compound 0.6325 µM) | relative viability (Erlotinib + Foretinib; first compound 2 µM) | relative viability (Erlotinib + AZD7762; first compound 0.02 µM) | relative viability (Erlotinib + AZD7762; first compound 0.2 µM) | relative viability (Erlotinib + AZD7762; first compound 0.6325 µM) | relative viability (Erlotinib + AZD7762; first compound 2 µM) | relative viability (AT9283 + Palbociclib; first compound 0.003 µM) | relative viability (AT9283 + Palbociclib; first compound 0.03 µM) | relative viability (AT9283 + Palbociclib; first compound 0.09487 µM) | relative viability (AT9283 + Palbociclib; first compound 0.3 µM) | relative viability (AT9283 + AZD7762; first compound 0.003 µM) | relative viability (AT9283 + AZD7762; first compound 0.03 µM) | relative viability (AT9283 + AZD7762; first compound 0.09487 µM) | relative viability (AT9283 + AZD7762; first compound 0.3 µM) | relative viability (AT9283 + Lapatinib; first compound 0.003 µM) | relative viability (AT9283 + Lapatinib; first compound 0.03 µM) | relative viability (AT9283 + Lapatinib; first compound 0.09487 µM) | relative viability (AT9283 + Lapatinib; first compound 0.3 µM) |
| --- | --- | --- | --- | --- | --- | --- | --- | --- | --- | --- | --- | --- | --- | --- | --- | --- | --- | --- | --- | --- |
| LCLC-103H | 0.743 | 0.799 | 0.848 | 0.566 | 0.801 | 0.875 | 0.874 | 0.669 | 0.362 | 0.494 | 0.423 | 0.371 | 0.749 | 0.661 | 0.554 | 0.328 |  |  |  |  |
| NCI-H520 | 0.803 | 0.926 | 0.749 | 0.745 |  |  |  |  | 0.238 | 0.2 | 0.142 | 0.127 |  |  |  |  | 0.77 | 0.295 | 0.21 | 0.196 |
| NCI-H522 |  |  |  |  | 0.812 | 0.893 | 1.02 | 0.833 | 0.945 | 0.731 | 0.577 | 0.585 | 0.626 | 0.582 | 0.399 | 0.37 |  |  |  |  |
| NCI-H596 | 0.759 | 0.847 | 0.995 | 0.758 | 1.04 | 0.954 | 1.05 | 0.87 |  |  |  |  | 1.01 | 1.2 | 0.976 | 0.595 | 0.845 | 0.884 | 0.623 | 0.404 |
| NCI-H661 | 1 | 0.921 | 1.1 | 0.705 |  |  |  |  | 0.44 | 0.368 | 0.329 | 0.368 |  |  |  |  | 0.471 | 0.518 | 0.276 | 0.286 |
| NCI-H1299 | 1.11 | 1.08 | 1.16 | 1.07 |  |  |  |  |  |  |  |  |  |  |  |  | 1.02 | 0.509 | 0.404 | 0.343 |
| NCI-H1563 | 0.979 | 0.836 | 0.955 | 0.951 |  |  |  |  |  |  |  |  |  |  |  |  | 0.941 | 0.811 | 0.843 | 0.701 |
| NCI-H1623 | 0.923 | 0.679 | 0.366 | 0.301 |  |  |  |  |  |  |  |  |  |  |  |  |  |  |  |  |
| NCI-H1648 |  |  |  |  |  | 0.649 | 0.64 | 0.465 | 0.247 | 0.262 | 0.242 | 0.297 | 0.465 | 0.631 | 0.368 | 0.37 |  |  |  |  |
| NCI-H1650 | 0.747 | 0.594 | 0.697 | 0.699 |  |  |  |  | 0.38 | 0.404 | 0.242 | 0.237 |  |  |  |  | 0.697 | 0.287 | 0.225 | 0.115 |
| NCI-H1703 | 0.33 | 0.419 | 0.343 | 0.357 | 0.113 | 0.133 | 0.142 | 0.115 |  |  |  |  | 0.12 | 0.108 | 0.0955 | 0.106 | 1.24 | 0.277 | 0.31 | 0.354 |
| NCI-H1792 |  |  |  |  | 0.904 | 0.465 | 0.6 | 0.469 | 0.607 | 0.661 | 0.623 | 0.399 | 0.601 | 0.647 | 0.432 | 0.262 | 0.797 | 0.713 | 0.151 | 0.108 |
| NCI-H2009 | 1.28 | 1.24 | 1.36 | 1.23 |  |  |  |  | 0.235 | 0.174 | 0.0777 | 0.032 |  |  |  |  | 1.01 | 0.337 | 0.31 | 0.305 |
| NCI-H2023 | 0.754 | 0.607 | 0.589 | 0.406 |  |  |  |  | 0.417 | 0.327 | 0.258 | 0.139 |  |  |  |  | 0.778 | 0.133 | 0.122 | 0.0743 |
| NCI-H2228 | 0.897 | 0.885 | 0.946 | 0.815 |  |  |  |  | 0.588 | 0.492 | 0.351 | 0.149 |  |  |  |  | 1.06 | 0.367 | 0.115 | 0.141 |
| NCI-H2342 | 1.08 | 0.899 | 0.932 |  | 0.453 | 0.566 | 0.502 |  | 0.505 | 0.535 | 0.502 | 0.449 | 0.439 | 0.364 | 0.36 | 0.4 |  |  |  |  |
| SK-LU-1 | 0.961 | 0.975 | 0.997 | 0.699 |  |  |  |  | 0.416 | 0.373 | 0.279 | 0.283 |  |  |  |  | 0.933 | 0.371 | 0.274 | 0.272 |
| SK-MES-1 | 1.03 | 0.635 |  | 0.357 |  |  |  |  | 0.365 | 0.311 | 0.255 | 0.2 |  |  |  |  | 0.427 | 0.547 | 0.349 | 0.263 |
| SW 900 | 0.98 | 0.92 | 0.792 | 0.757 | 0.783 | 0.52 | 0.557 | 0.443 | 0.462 | 0.542 | 0.368 | 0.253 | 0.478 | 1.15 | 0.545 | 0.271 |  |  |  |  |
| SW 1573 | 0.886 | 0.911 | 0.895 | 0.9 |  |  |  |  | 0.333 | 0.158 | 0.173 | 0.121 |  |  |  |  | 1.15 | 0.494 | 0.188 | 0.244 |
| UMC-11 | 1.04 | 0.973 | 1.08 | 1.08 |  |  |  |  | 0.327 | 0.235 | 0.243 | 0.186 |  |  |  |  | 0.978 | 0.142 | 0.128 | 0.202 |

From the supplement of paper PMC10307832
